According to BindingDB's records for doi:10.1002/cbic.201402579 (2015):

Each molecule was assayed against Cyclin-dependent kinase 2 (Homo sapiens, UniProt P24941) (assay: Protein Kinase Assay). Settings: pH 7.5; 30 °C.
Protocol: We incubated human recombinant CDK2/cyclin A with small molecules at the indicatedconcentrations in buffer A (Tris HCl (25 mm, pH 7.5), MgCl2 (10 mm), EGTA (1 mm), DTT (1 mm), heparin ([…])) containing histone H1 (1 mg/mL), […] and [g-33P]ATP (15 mm, 3,000 Cimmol^-1; 10 mCi/mL) in a […]. After 30 min incubation at 30 C , we stopped the reaction by using a MicroBeta FilterMate-96 Harvester and P81 phosphocellulose papers , which we washed in phosphoric acid (1 %). We added scintillation fluid, and we measured the radioactivity in a counter with microplate robotic stackers. We calculated kinase activity as picomoles of phosphate incorporated during the 30 min incubation. We evaluated percentage kinase activity as the amount compared to that measured in the absence of inhibitors.

Kd [µM]	SMILES
17.8	CC(=O)OCc1cc(O)c2c(c1)C(=O)c1cccc(O)c1C2=O [11-O-acetyl-aloe-emodin]
287	NNc1ncnc2sc3c(c12)CCC3 [7,8-dihydro-6H-cyclopenta[4,5]thieno[1,2-c]pyrimidin-1-yldiazane]
32.5	NNc1ncnc2sc3c(c12)CCCCC3 [4-hydrazino-6,7,8,9-tetrahydro-5H-cyclohepta[4,5]thieno[2,3-d]pyrimidine (A1)]
28.3	NNc1ncnc2sc3c(c12)CCCC3 [4-hydrazino-5,6,7,8-tetrahydro[1]benzothieno[2,3-d]pyrimidine (A)]
9.6	O=C(O)c1cc(O)c2c(c1)C(=O)c1cccc(O)c1C2=O [RHEIN]
